Measured values taken from patent US8722849B2, “Polypeptides” (Novo Nordisk A/S, priority 2011, dated 2014).
pEC50: −log10 of the molar value. In brackets after ≈: the same amount, converted by molar mass. Read-outs that look alike come from different tables or passages of the source. Starred links: 1 amine or outer side, 2 acyl side, 3 side chain; linkers in the order of their positions; H or OH if unused. Positions of bridges follow the written chain, without caps; N, C: chain ends. Residues, ends and D or L forms follow the SMILES beside them. *: point of attachment. C20 diacid = O=C(O)CCCCCCCCCCCCCCCCCCC(=O)*; γGlu = O=C(O)[C@H](CCC(=O)[*:2])N[*:1]

Key:
[1] = Assay (IV) determination of solubility; type: physicochemical
In short: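 Stock ~500 nmol/ml in water; 1:1 with 100 mM buffer, pH 3.0–8.0 (glycylglycine ≤5.0, bistrispropane ≥6.0); 18 h RT; spin; HPLC quantitation of soluble polypeptide.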

[2] = Assay (III) ThT fibrillation assay for physical stability; type: physicochemical; settings: ThT fibrillation assay
In short: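 Freshly prepared formulations, pH-adjusted, with 1 μM ThT; four or eight replicates incubated at 37 °C under 960 rpm orbital shaking. Fluorescence (ex 444/em 485 nm) read every 20 min; […]. Peptide concentration measured by RP-HPLC before and after the run.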

[3] = target: T1, human calcitonin receptor (Homo sapiens, UniProt P30988); experiment: Assay (II)a functional CRE-luciferase assay, human calcitonin receptor; type: cell-based; settings: Table 7; human calcitonin (CTa) receptor
T1 construct: expressed in transfected cells; host or cells: BHK570
T1 sequence (P30988 25-474): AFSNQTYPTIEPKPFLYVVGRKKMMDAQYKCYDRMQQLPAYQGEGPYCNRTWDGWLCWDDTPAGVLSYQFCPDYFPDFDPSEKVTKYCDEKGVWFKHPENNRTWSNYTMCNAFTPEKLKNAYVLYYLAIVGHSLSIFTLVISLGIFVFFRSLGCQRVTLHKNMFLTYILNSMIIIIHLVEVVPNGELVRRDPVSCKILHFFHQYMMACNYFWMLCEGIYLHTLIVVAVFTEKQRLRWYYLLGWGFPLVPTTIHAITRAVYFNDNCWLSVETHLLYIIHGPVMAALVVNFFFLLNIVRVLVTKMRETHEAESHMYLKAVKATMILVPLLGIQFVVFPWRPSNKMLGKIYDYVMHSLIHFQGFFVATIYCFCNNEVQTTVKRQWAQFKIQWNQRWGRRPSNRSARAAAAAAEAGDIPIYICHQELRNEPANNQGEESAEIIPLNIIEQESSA

[4] = target: T2, human amylin receptor (amylin 3(a) receptor: human calcitonin receptor + RAMP-3) (Homo sapiens, UniProt O60896+P30988); experiment: Assay (II)a functional CRE-luciferase assay, human amylin receptor; type: cell-based; settings: Table 2; BHK amylin 3(a)-receptor/CRE-luc cells
T2 construct: expressed in transfected cells; host or cells: BHK570
T2 sequence (P30988 25-474): T1 sequence (P30988 25-474)
T2 sequence (O60896 24-148 partner): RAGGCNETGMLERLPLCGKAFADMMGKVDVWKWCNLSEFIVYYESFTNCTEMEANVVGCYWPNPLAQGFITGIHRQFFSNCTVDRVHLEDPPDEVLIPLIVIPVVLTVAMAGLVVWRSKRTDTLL

[5] = bistrispropane buffer, pH 6, pH 6.0, read-out: Solubility pH 6.0
[6] = bistrispropane buffer, pH 6.5, pH 6.5, read-out: Solubility pH 6.5
[7] = bistrispropane buffer, pH 7, pH 7.0, read-out: Solubility pH 7.0
[8] = bistrispropane buffer, pH 7.5, pH 7.5, read-out: Solubility pH 7.5
[9] = bistrispropane buffer, pH 8, pH 8.0, read-out: Solubility pH 8.0
[10] = glycylglycine buffer, pH 3, pH 3.0, read-out: Solubility pH 3.0
[11] = glycylglycine buffer, pH 4, pH 4.0, 18 hours at room temperature, Table 2, read-out: Solubility pH 4.0
[12] = glycylglycine buffer, pH 4, pH 4.0, read-out: Solubility pH 4.0
[13] = glycylglycine buffer, pH 5, pH 5.0, read-out: Solubility pH 5.0

Compound | solubility at 18 h [1, 5] | solubility at 18 h [1, 6] | solubility at 18 h [1, 7] | solubility at 18 h [1, 8] | solubility at 18 h [1, 9] | solubility at 18 h [1, 10] | solubility at 18 h [1, 11] | solubility at 18 h [1, 12] | solubility at 18 h [1, 13] | ThT pH 4.0 lag time (h) [2] | pEC50 [3] | pEC50 [4] | further results
CC[C@H](C)[C@H](NC(=O)[C@@H]1CCCN1C(=O)CNC(=O)[C@H](Cc1ccccc1)NC(=O)[C@H](CC(N)=O)NC(=O)[C@H](CO)NC(=O)[C@H](CO)NC(=O)[C@H](CO)NC(=O)[C@H](Cc1c[nH]cn1)NC(=O)[C@H](Cc1c[nH]cn1)NC(=O)[C@H](CC(C)C)NC(=O)[C@H](Cc1ccccc1)NC(=O)[C@H](CCC(=O)O)NC(=O)[C@H](C)NC(=O)[C@H](CC(C)C)NC(=O)[C@H](CCCNC(=N)N)NC(=O)[C@H](CCC(N)=O)NC(=O)[C@@H](NC(=O)[C@H](C)NC(=O)[C@@H]1CSSC[C@H](NC(=O)[C@H](Cc2c[nH]cn2)NC(=O)[C@H](Cc2c[nH]cn2)NC(=O)[C@H](Cc2c[nH]cn2)NC(=O)CC[C@H](NC(=O)CCCCCCCCCCCCCCCCCCC(=O)O)C(=O)O)C(=O)N[C@@H](CC(N)=O)C(=O)N[C@@H]([C@@H](C)O)C(=O)N[C@@H](C)C(=O)N[C@@H]([C@@H](C)O)C(=O)N1)[C@@H](C)O)C(=O)N[C@@H](CC(C)C)C(=O)N1CCC[C@H]1C(=O)N1CCC[C@H]1C(=O)N[C@H](C(=O)N[C@@H](CC(N)=O)C(=O)N[C@H](C(=O)NCC(=O)N[C@@H](CO)C(=O)N[C@@H](CCC(=O)O)C(=O)N[C@H](C(=O)N[C@@H](Cc1ccc(O)cc1)C(N)=O)[C@@H](C)O)C(C)C)[C@@H](C)O [Example 63, N-alpha-[(S)-4-Carboxy-4-(19-carboxynonadecanoylamino)butyryl]-His-His-[His1,Glu14,His17,Ser21,Glu35]-pramlintide] ({C20 diacid-γGlu}-HHHCNTATCATQRLAEFLHHSSSNFGPILPPTNVGSETY-NH2; disulfide 4-9 (inferred); C-terminus assumed) | 1 µM (≈ 4.73 µg/mL) | 2 µM (≈ 9.45 µg/mL) | 75 µM (≈ 355 µg/mL) | > 200 µM | > 200 µM | > 200 µM | > 200 µM | > 200 µM | > 200 µM | 2 h | 9.20 | 9.25 | –
CC[C@H](C)[C@H](NC(=O)[C@@H]1CCCN1C(=O)CNC(=O)[C@H](Cc1ccccc1)NC(=O)[C@H](CC(N)=O)NC(=O)[C@H](CC(=O)O)NC(=O)[C@H](CO)NC(=O)[C@H](CO)NC(=O)[C@H](Cc1c[nH]cn1)NC(=O)[C@H](Cc1c[nH]cn1)NC(=O)[C@H](CC(C)C)NC(=O)[C@H](Cc1ccccc1)NC(=O)[C@H](CCC(=O)O)NC(=O)[C@H](C)NC(=O)[C@H](CC(C)C)NC(=O)[C@H](CCCNC(=N)N)NC(=O)[C@H](CCC(N)=O)NC(=O)[C@@H](NC(=O)[C@H](C)NC(=O)[C@@H]1CSSC[C@H](NC(=O)[C@H](CCCCN)NC(=O)CC[C@H](NC(=O)CCCCCCCCCCCCCCCCCCC(=O)O)C(=O)O)C(=O)N[C@@H](CC(N)=O)C(=O)N[C@@H]([C@@H](C)O)C(=O)N[C@@H](C)C(=O)N[C@@H]([C@@H](C)O)C(=O)N1)[C@@H](C)O)C(=O)N[C@@H](CC(C)C)C(=O)N1CCC[C@H]1C(=O)N1CCC[C@H]1C(=O)N[C@H](C(=O)N[C@@H](CC(N)=O)C(=O)N[C@H](C(=O)NCC(=O)N[C@@H](CO)C(=O)N[C@@H](Cc1c[nH]cn1)C(=O)N[C@H](C(=O)N[C@@H](Cc1ccc(O)cc1)C(N)=O)[C@@H](C)O)C(C)C)[C@@H](C)O [Example 128, N-alpha-[(S)-4-Carboxy-4-(19-carboxynonadecanoylamino)butyryl]-[Glu14,His17,Asp21,His35]-pramlintide] ({C20 diacid-γGlu}-KCNTATCATQRLAEFLHHSSDNFGPILPPTNVGSHTY-NH2; disulfide 2-7 (inferred); C-terminus assumed) | – | – | – | – | – | – | – | – | – | >45 h | 9.58 | 9.54 | solubility at 18 h ([1]; pH 3.0, read-out: Solubility pH 3.0): > 200 µM; solubility at 18 h ([1]; pH 4.0, 18 hours at room temperature, Table 2, read-out: Solubility pH 4.0): > 200 µM; solubility at 18 h ([1]; pH 4.0, read-out: Solubility pH 4.0): >200 µM; solubility at 18 h ([1]; pH 5.0, read-out: Solubility pH 5.0): > 200 µM; solubility at 18 h ([1]; pH 6.0, read-out: Solubility pH 6.0): > 200 µM; solubility at 18 h ([1]; pH 6.5, read-out: Solubility pH 6.5): 114 µM (≈ 511 µg/mL); solubility at 18 h ([1]; pH 7.0, 18 hours at room temperature, Table 3, read-out: Solubility pH 7.0): 140 µM (≈ 627 µg/mL); solubility at 18 h ([1]; pH 7.0, read-out: Solubility pH 7.0): 140 µM (≈ 627 µg/mL); solubility at 18 h ([1]; pH 7.5, read-out: Solubility pH 7.5): > 200 µM; solubility at 18 h ([1]; pH 8.0, read-out: Solubility pH 8.0): > 200 µM; ThT pH 4.0 lag time [2]: >45 h
CC[C@H](C)[C@H](NC(=O)[C@@H]1CCCN1C(=O)CNC(=O)[C@H](Cc1ccccc1)NC(=O)[C@H](CC(N)=O)NC(=O)[C@H](CC(N)=O)NC(=O)[C@H](CO)NC(=O)[C@H](CO)NC(=O)[C@H](Cc1c[nH]cn1)NC(=O)[C@H](Cc1c[nH]cn1)NC(=O)[C@H](CC(C)C)NC(=O)[C@H](Cc1ccccc1)NC(=O)[C@H](CCC(=O)O)NC(=O)[C@H](C)NC(=O)[C@H](CC(C)C)NC(=O)[C@H](CCCNC(=N)N)NC(=O)[C@H](CCC(N)=O)NC(=O)[C@@H](NC(=O)[C@H](C)NC(=O)[C@@H]1CSSC[C@H](NC(=O)[C@H](CCC(=O)O)NC(=O)[C@H](CCCNC(=N)N)NC(=O)[C@H](CCC(=O)O)NC(=O)CC[C@H](NC(=O)CCCCCCCCCCCCCCCCCCC(=O)O)C(=O)O)C(=O)N[C@@H](CC(N)=O)C(=O)N[C@@H]([C@@H](C)O)C(=O)N[C@@H](C)C(=O)N[C@@H]([C@@H](C)O)C(=O)N1)[C@@H](C)O)C(=O)N[C@@H](CC(C)C)C(=O)N1CCC[C@H]1C(=O)N1CCC[C@H]1C(=O)N[C@H](C(=O)N[C@@H](CC(N)=O)C(=O)N[C@H](C(=O)NCC(=O)N[C@@H](CO)C(=O)N[C@@H](CC(N)=O)C(=O)N[C@H](C(=O)N1CCC[C@H]1C(N)=O)[C@@H](C)O)C(C)C)[C@@H](C)O [Example 123, N-alpha-[(S)-4-Carboxy-4-(19-carboxynonadecanoylamino)butyryl]-Glu-Arg-[Glu1,Glu14,His17,Pro37]-pramlintide] ({C20 diacid-γGlu}-ERECNTATCATQRLAEFLHHSSNNFGPILPPTNVGSNTP-NH2; disulfide 4-9 (inferred)) | > 200 µM | > 200 µM | > 200 µM | > 200 µM | > 200 µM | > 200 µM | > 200 µM | > 200 µM | > 200 µM | 8.7 h | 9.42 | 9.87 | solubility at 18 h ([1]; bistrispropane buffer, pH 7, pH 7.0, 18 hours at room temperature, Table 3, read-out: Solubility pH 7.0): > 200 µM
